In US6645918B1, “N-([1,2,4]triazoloazinyl)thiophenesulfonamide compounds and their use as herbicides” (Dow AgroSciences LLC, priority 2000, dated 2003):

Legend:
Type in all cases: in vivo
[1] = tested on: cocklebur (Xanthium strumarium); assay: Preemergence herbicidal activity, cocklebur; conditions: soil spray, visual after 3 weeks, 0 no injury, 100 complete kill or no germination
Procedure: (§1) The soil matrix was contained in plastic pots with a surface area of 161 square centimeters. When required to ensure good germination and healthy plants, a fungicide treatment and/or other chemical or physical treatment was applied. A weighed amount, determined by the highest rate to be tested, of each test compound was placed in a 20 mL glass vial and was dissolved in 8 mL of a 97:3 v/v (volume/volume) mixture of acetone and dimethyl sulfoxide to obtain concentrated stock solutions. […] The stock solutions obtained were diluted with a 99.9:0.1 mixture of water and Tween® 155 surfactant (ethoxylated sorbitan fatty acid ester) to obtain application solutions of known concentration. The solutions containing the highest concentration to be tested were prepared by diluting 4 mL aliquots of the stock solution with 8.5 mL of the mixture and lower concentrations were prepared by dilution of appropriate smaller portions of the stock solution. A 2.5 mL aliquot of each solution of known concentration was sprayed evenly onto the soil of each seeded pot using a Cornwall 5.0 mL glass syringe fitted with a TeeJet TN-3 hollow cone nozzle to obtain thorough coverage of the soil in each pot. Control pots were sprayed in the same manner with the aqueous mixture. A highest application rate of 4.48 kg/ha is achieved when 50 mg of test compound is employed. The treated pots and control pots were placed in a greenhouse with an approximately 15 hr photoperiod which was maintained at about 23-29° C. during the day and 22-28° C. during the night. Nutrients and water were added on a regular basis and supplemental lighting was provided with overhead metal halide 1000 Watt lamps as necessary. The water was added by top-irrigation. After 3 weeks the condition of the test plants that germinated and grew as compared with that of the untreated plants that germinated and grew was determined visually and scored on a scale of 0 to 100 percent where 0 corresponds to no injury and 100 corresponds to complete kill or no germination.

[2] = tested on: wild buckwheat (Polygonum convolvulus); assay: Postemergence herbicidal activity, wild buckwheat; conditions: foliar spray, visual after 2 weeks, 0 no injury, 100 complete kill
Procedure: (§2) Seeds of the desired test plant species were planted in Grace-Sierra MetroMix® 306 planting mixture, which typically has a pH of 6.0 to 6.8 and an organic matter content of about 30 percent, in plastic pots with a surface area of 64 square centimeters. When required to ensure good germination and healthy plants, a fungicide treatment and/or other chemical or physical treatment was applied. The plants were grown for 7-21 days in a greenhouse with an approximately 15 hr photoperiod which was maintained at about 23-29° C. during the day and 22-28° C. during the night. Nutrients and water were added on a regular basis and supplemental lighting was provided with overhead metal halide 1000 Watt lamps as necessary. The plants were employed for testing when they reached the first or second true leaf stage. A weighed amount of each test compound, determined by the highest rate to be tested, was placed in a 20 mL glass vial and was dissolved in 4 mL of a 97:3 v/v (volume/volume) mixture of acetone and dimethyl sulfoxide to obtain concentrated stock solutions. […] The concentrated stock solutions obtained were diluted with an aqueous mixture containing acetone, water, iso-propyl alcohol, dimethyl sulfoxide, Atplus 411F crop oil concentrate, and Triton X-155 surfactant (methylenebisdiamyl phenoxy polyethoxy ethanol) in a 48.5:39:10:1.5:1.0:0.02 v/v ratio to obtain spray solutions of known concentration. The solutions containing the highest concentration to be tested were prepared by diluting 2 mL aliquots of the stock solution with 13 mL of the mixture and lower concentrations were prepared by dilution of appropriate smaller portions of the stock solution. Approximately 1.5 mL aliquots of each solution of known concentration were sprayed evenly onto each of the test plant pots using a DeVilbiss atomizer driven by compressed air pressure of 2 to 4 psi (140 to 280 kilopascals) to obtain thorough coverage of each plant. Control plants were sprayed in the same manner with the aqueous mixture. In this test an application rate of 1 ppm results in the application of approximately 1 g/ha. The treated plants and control plants were placed in a greenhouse as described above and watered by sub-irrigation to prevent wash-off of the test compounds. After 2 weeks the condition of the test plants as compared with that of the untreated plants was determined visually and scored on a scale of 0 to 100 percent where 0 corresponds to no injury and 100 corresponds to complete kill.

[3] = tested on: Rox orange sorghum (Sorghum bicolor); assay: Preemergence herbicidal activity, Rox orange sorghum; conditions: soil spray, visual after 3 weeks, 0 no injury, 100 complete kill or no germination
Procedure: as §1

[4] = tested on: morningglory (Ipomoea hederacea); assay: Postemergence herbicidal activity, morningglory; conditions: foliar spray, visual after 2 weeks, 0 no injury, 100 complete kill
Procedure: as §2

[5] = tested on: cocklebur (Xanthium strumarium); assay: Postemergence herbicidal activity, cocklebur; conditions: foliar spray, visual after 2 weeks, 0 no injury, 100 complete kill
Procedure: as §2

[6] = tested on: crabgrass (Digitaria sanguinalis); assay: Preemergence herbicidal activity, crabgrass; conditions: soil spray, visual after 3 weeks, 0 no injury, 100 complete kill or no germination
Procedure: as §1

[7] = tested on: velvetleaf (Abutilion theophrasti); assay: Preemergence herbicidal activity, velvetleaf; conditions: soil spray, visual after 3 weeks, 0 no injury, 100 complete kill or no germination
Procedure: as §1

[8] = tested on: wild oats (Avena fatua); assay: Preemergence herbicidal activity, wild oats; conditions: soil spray, visual after 3 weeks, 0 no injury, 100 complete kill or no germination
Procedure: as §1

[9] = tested on: giant foxtail (Setaria faberi); assay: Preemergence herbicidal activity, giant foxtail; conditions: soil spray, visual after 3 weeks, 0 no injury, 100 complete kill or no germination
Procedure: as §1

[10] = tested on: morningglory (Ipomoea hederacea); assay: Preemergence herbicidal activity, morningglory; conditions: soil spray, visual after 3 weeks, 0 no injury, 100 complete kill or no germination
Procedure: as §1

[11] = tested on: lambsquarters (Chenopodium album); assay: Preemergence herbicidal activity, lambsquarters; conditions: soil spray, visual after 3 weeks, 0 no injury, 100 complete kill or no germination
Procedure: as §1

[12] = tested on: wild poinsettia (Euphorbia heterophylla); assay: Preemergence herbicidal activity, wild poinsettia; conditions: soil spray, visual after 3 weeks, 0 no injury, 100 complete kill or no germination
Procedure: as §1

[13] = tested on: giant foxtail (Setaria faberi); assay: Postemergence herbicidal activity, giant foxtail; conditions: foliar spray, visual after 2 weeks, 0 no injury, 100 complete kill
Procedure: as §2

[14] = tested on: velvetleaf (Abutilion theophrasti); assay: Postemergence herbicidal activity, velvetleaf; conditions: foliar spray, visual after 2 weeks, 0 no injury, 100 complete kill
Procedure: as §2

[15] = tested on: pigweed (Amaranthus retroflexus); assay: Postemergence herbicidal activity, pigweed; conditions: foliar spray, visual after 2 weeks, 0 no injury, 100 complete kill
Procedure: as §2

[16] = tested on: pigweed (Amaranthus retroflexus); assay: Preemergence herbicidal activity, pigweed; conditions: soil spray, visual after 3 weeks, 0 no injury, 100 complete kill or no germination
Procedure: as §1

[17] = tested on: blackgrass (Alopecurus myosuroides); assay: Preemergence herbicidal activity, blackgrass; conditions: soil spray, visual after 3 weeks, 0 no injury, 100 complete kill or no germination
Procedure: as §1

[18] = tested on: lambsquarters (Chenopodium album); assay: Postemergence herbicidal activity, lambsquarters; conditions: foliar spray, visual after 2 weeks, 0 no injury, 100 complete kill
Procedure: as §2

[19] = tested on: viola (Viola tricolor); assay: Postemergence herbicidal activity, viola; conditions: foliar spray, visual after 2 weeks, 0 no injury, 100 complete kill
Procedure: as §2

[20] = tested on: wild oats (Avena fatua); assay: Postemergence herbicidal activity, wild oats; conditions: foliar spray, visual after 2 weeks, 0 no injury, 100 complete kill
Procedure: as §2

[21] = tested on: Rox orange sorghum (Sorghum bicolor); assay: Postemergence herbicidal activity, Rox orange sorghum; conditions: foliar spray, visual after 2 weeks, 0 no injury, 100 complete kill
Procedure: as §2

[22] = tested on: chickweed (Stellaria media); assay: Postemergence herbicidal activity, chickweed; conditions: foliar spray, visual after 2 weeks, 0 no injury, 100 complete kill
Procedure: as §2

[23] = tested on: blackgrass (Alopecurus myosuroides); assay: Postemergence herbicidal activity, blackgrass; conditions: foliar spray, visual after 2 weeks, 0 no injury, 100 complete kill
Procedure: as §2

[24] = tested on: barnyardgrass (Echinochloa crus-galli); assay: Preemergence herbicidal activity, barnyardgrass; conditions: soil spray, visual after 3 weeks, 0 no injury, 100 complete kill or no germination
Procedure: as §1

Structure (SMILES): COc1cnc(OC)n2nc(NS(=O)(=O)c3ccsc3CC(=O)O)nc12 [Compound 6, N-(5,8-dimethoxy[1,2,4]triazolo[1,5-c]pyrimidin-2-yl)-2-carboxymethylthiophene-3-sulfonamide]
- XANST preemergence injury score 0-100 ([1]; 35 g/Ha): 70%
- POLCO postemergence injury score 0-100 ([2]; 7.8 ppm): 85%
- SORBI preemergence injury score 0-100 ([3]; 35 g/Ha): 100%
- IPOHE postemergence injury score 0-100 ([4]; 7.8 ppm): 85%
- XANST postemergence injury score 0-100 ([5]; 7.8 ppm): 95%
- DIGSA preemergence injury score 0-100 ([6]; 35 g/Ha): 100%
- ABUTH preemergence injury score 0-100 ([7]; 35 g/Ha): 80%
- AVEFA preemergence injury score 0-100 ([8]; 35 g/Ha): 80%
- SETFA preemergence injury score 0-100 ([9]; 35 g/Ha): 100%
- IPOHE preemergence injury score 0-100 ([10]; 35 g/Ha): 80%
- CHEAL preemergence injury score 0-100 ([11]; 35 g/Ha): 99%
- EPHHL preemergence injury score 0-100 ([12]; 35 g/Ha): 70%
- SETFA postemergence injury score 0-100 ([13]; 7.8 ppm): 98%
- ABUTH postemergence injury score 0-100 ([14]; 7.8 ppm): 90%
- AMARE postemergence injury score 0-100 ([15]; 7.8 ppm): 100%
- AMARE preemergence injury score 0-100 ([16]; 35 g/Ha): 100%
- ALOMY preemergence injury score 0-100 ([17]; 35 g/Ha): 75%
- CHEAL postemergence injury score 0-100 ([18]; 7.8 ppm): 80%
- VIOTR postemergence injury score 0-100 ([19]; 7.8 ppm): 85%
- AVEFA postemergence injury score 0-100 ([20]; 7.8 ppm): 70%
- SORBI postemergence injury score 0-100 ([21]; 7.8 ppm): 80%
- STEME postemergence injury score 0-100 ([22]; 7.8 ppm): 80%
- ALOMY postemergence injury score 0-100 ([23]; 7.8 ppm): 80%
- ECHCG preemergence injury score 0-100 ([24]; 35 g/Ha): 80%

Structure (SMILES): CCOc1cscc1S(=O)(=O)Nc1nc2c(OC)ccc(OC)n2n1 [Compound 11]
- XANST preemergence injury score 0-100 ([1]; 4.4 g/Ha): 50%
- POLCO postemergence injury score 0-100 ([2]; 15.6 ppm): 80%
- SORBI preemergence injury score 0-100 ([3]; 4.4 g/Ha): 98%
- IPOHE postemergence injury score 0-100 ([4]; 15.6 ppm): 70%
- XANST postemergence injury score 0-100 ([5]; 15.6 ppm): 90%
- DIGSA preemergence injury score 0-100 ([6]; 4.4 g/Ha): 40%
- ABUTH preemergence injury score 0-100 ([7]; 4.4 g/Ha): 80%
- AVEFA preemergence injury score 0-100 ([8]; 4.4 g/Ha): 70%
- SETFA preemergence injury score 0-100 ([9]; 4.4 g/Ha): 100%
- IPOHE preemergence injury score 0-100 ([10]; 4.4 g/Ha): 30%
- CHEAL preemergence injury score 0-100 ([11]; 4.4 g/Ha): 95%
- EPHHL preemergence injury score 0-100 ([12]; 4.4 g/Ha): 50%
- SETFA postemergence injury score 0-100 ([13]; 15.6 ppm): 100%
- ABUTH postemergence injury score 0-100 ([14]; 15.6 ppm): 85%
- AMARE postemergence injury score 0-100 ([15]; 15.6 ppm): 100%
- AMARE preemergence injury score 0-100 ([16]; 4.4 g/Ha): 90%
- ALOMY preemergence injury score 0-100 ([17]; 4.4 g/Ha): 100%
- CHEAL postemergence injury score 0-100 ([18]; 15.6 ppm): 95%
- VIOTR postemergence injury score 0-100 ([19]; 15.6 ppm): 75%
- AVEFA postemergence injury score 0-100 ([20]; 15.6 ppm): 85%
- SORBI postemergence injury score 0-100 ([21]; 15.6 ppm): 90%
- STEME postemergence injury score 0-100 ([22]; 15.6 ppm): 80%
- ALOMY postemergence injury score 0-100 ([23]; 15.6 ppm): 75%
- ECHCG preemergence injury score 0-100 ([24]; 4.4 g/Ha): 10%
